In patent US20250003968A1, “ACTIVITY-BASED CELL SORTING” (MASSACHUSETTS INSTITUTE OF TECHNOLOGY, priority 2021, published 2025):
Where no end group is shown, it is not given here. [ ]: non-standard residue; d: D form. Cy5 = Cy5 fluorophore label; code o = not defined here; QSY21 = quencher dye

Tests used:
[1] = tested on: CD45-, CD11b- cells from lungs; experiment: Activity-based cell sorting / flow cytometry after QZ1 administration; assay type: in vivo, mouse
Description: Eml4-Alk mice (10-12 weeks post tumor induction) and age- and sex-matched C57BL/6J healthy controls (Jackson Labs; 18-22 weeks) were euthanized by isoflurane overdose, and lungs were excised, separated into lobes, and kept in a round cell culture dish (ThermoFisher) on ice. For tumor-bearing lungs, tumors were separated from healthy tissue using forceps and scissors under a dissecting microscope, and the dissected tumors and surrounding tissue were kept in 5 mL Eppendorf tubes (Sigma Aldrich) for preparation into single-cell suspension. Tissue was minced using Noyes spring scissors (Fine Science Tools) until pieces were less than 1 cm in size, with the visual appearance of ground meat. […]
Single cell lung suspensions from Eml4-Alk mice administered QZ1 were stained with the following antibodies (catalog number, vendor, clone, fluorophore, dilution): CD44 (563508, BD, IM7, BV605, 1:200), CD105 (564746, BD, MJ7/18, BV786, 1:200), Ly6-A/E (12-5981-81, ThermoFisher, D7, PE, 1:200), CD11b (557657, BD, M1/70, APC-Cy7, 1:200), CD45 (566439, BD, 30-F11, AF488, 1:400), and EpCAM (118216, BioLegend™, G8.8, PE-Cy7, 1:200). […] Flow cytometry data was analyzed by the FlowJo software (Treestar). […]

Eml4-Alk lungs = experiment: In vivo administration of QZ1-(PEG2K), IVIS imaging of explanted lungs; design: species or system mouse; conditions: two hours post intravenous injection
Description: QZ1 (Table 4) was reconstituted to 1 mg/mL in water, then reacted with mPEG-Maleimide, MW 2000 g/mol (Laysan Bio), for PEG coupling via maleimide-thiol chemistry. After completion of the reaction, the final compound was purified using HPLC. All reactions were monitored using HPLC connected with mass spectrometry. […] Eml4-Alk mice (11-12 weeks post tumor induction) and age- and sex-matched C57BL/6J healthy controls (Jackson Labs; 18-22 weeks) were anesthetized using isoflurane inhalation (Zoetis). QZ1-(PEG2K) (4.5 nmoles in 0.9% NaCl) was administered intravenously via tail vein injection. Two hours after probe injection, mice were imaged on an in vivo imaging system (IVIS, PerkinElmer) by exciting Cy5 at 640 nm and measuring emission at 680 nm. Mice were subsequently euthanized by isoflurane overdose followed by cervical dislocation. Lungs were dissected and explanted for imaging via IVIS. Fluorescence signal intensity was quantified using the Living Image software (PerkinElmer, v4).

[2] = target: T1, recombinant fibroblast activation protein (FAP) (Homo sapiens, UniProt Q12884); experiment: Quenched probe cleavage by recombinant FAP (fluorescence activation); assay type: biochemical; conditions: quenched probe Q1 incorporating S1
T1 sequence (Q12884 26-760 limits assumed): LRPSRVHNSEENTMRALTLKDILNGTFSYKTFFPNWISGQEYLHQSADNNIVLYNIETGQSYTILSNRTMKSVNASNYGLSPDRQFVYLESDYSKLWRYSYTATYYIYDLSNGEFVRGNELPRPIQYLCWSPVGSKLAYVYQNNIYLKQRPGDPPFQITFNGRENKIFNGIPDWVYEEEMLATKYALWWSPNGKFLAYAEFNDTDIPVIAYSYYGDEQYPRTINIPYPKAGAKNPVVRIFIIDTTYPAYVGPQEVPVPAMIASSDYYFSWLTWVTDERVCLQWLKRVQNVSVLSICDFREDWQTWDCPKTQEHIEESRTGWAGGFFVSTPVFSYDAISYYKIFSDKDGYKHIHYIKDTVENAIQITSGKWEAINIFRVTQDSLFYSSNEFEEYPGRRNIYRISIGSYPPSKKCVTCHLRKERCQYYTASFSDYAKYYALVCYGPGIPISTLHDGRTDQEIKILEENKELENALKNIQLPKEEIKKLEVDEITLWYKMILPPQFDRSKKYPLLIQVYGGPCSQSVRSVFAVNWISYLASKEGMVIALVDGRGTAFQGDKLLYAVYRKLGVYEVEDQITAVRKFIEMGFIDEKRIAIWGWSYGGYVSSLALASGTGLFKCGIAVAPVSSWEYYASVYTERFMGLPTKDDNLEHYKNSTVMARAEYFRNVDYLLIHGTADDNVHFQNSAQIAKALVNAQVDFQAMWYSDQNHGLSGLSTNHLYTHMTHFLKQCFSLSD
Description: FIG. 10. Fibroblast activation protein (FAP) cleaves S1 in vitro. The quenched probe Q1, incorporating the substrate S1, was incubated with recombinant FAP, and fluorescence activation was monitored over time (n=2 replicates; mean t s.d.).

Substance | QZ1 staining in cells positive for mesenchymal cell markers ([1]; Eml4-Alk lungs, CD44, CD105, Ly-6A/E) | QZ1 staining in cells positive for mesenchymal cell markers ([1]; healthy lungs, separate experiment) | Cy5 fluorescence in explanted Eml4-Alk lungs relative to healthy lungs (Eml4-Alk lungs) | cleavage by FAP in vitro [2]
(QSY21)-eeeeeeeee-c(PEG2K)-oGGPQGIWGQG-rrrrrrrrr-k(Cy5) (QSY21-[dE][dE][dE][dE][dE][dE][dE][dE][dE][dC](PEG2K)[code o]GGPQGIWGQG[dR][dR][dR][dR][dR][dR][dR][dR][dR][dK](Cy5); reading uncertain; also: X11: 5-amino-3-oxopentanoyl, other spacer, or absent, printed as (QSY21)-eeeeeeeee-c(PEG2K)-oGGPQGIWGQG-rrrrrrrrr-k(Cy5)) [QZ1, PEGylated quenched probe] | increased QZ1 staining | more variable pattern | significantly increased | 
GGPQGIWGQC [S1] |  |  |  | cleaves
